# Experimental data as given in US8603737B2, “Methods for identifying HCV protease inhibitors” (priority 2008, dated 2013).
# Assays:
# HCV (A156S) mutant = target: T1, HCV (A156S) mutant (Hepatitis C virus genotype 1b, UniProt P26663, A1182S); assay: Mass spectrometric analysis of covalent modification, A156S mutant; type: binding; settings: 3 hours reaction time
# T1 construct: genotype 1b mutations in the NS3 protease of A156T, A156S, D168V, D168A, and R155K
# Protocol: (§1) Mass spectrometric analysis of HCV wild type or HCV variants (C159S, A156S, R155K, D168A, A156T, and D168V) in the presence of test compound was performed. 100 pmols of HCV wild type (Bioenza Calif.) was incubated with test compound for 1 hr and 3 hrs at 10-fold excess of test compound to protein. 1 μL aliquots of the samples (total volume of 4.24 μL) were diluted with 10 μL of 0.1% TFA prior to micro C4 ZipTipping directly onto the MALDI target using Sinapinic acid as the desorption matrix (10 mg/mL in 0.1% TFA:Acetonitrile 50:50). Analyses were performed on a Shimadzu Biotech Axima TOF (Shimadzu Instruments) matrix-assisted-laser desorption/ionization Time-of-Flight (MALDI-TOF) mass spectrometer. The same procedure was carried out on 100 pmols of HCV C159S mutant of HCV protease for 3 hrs at 10-fold excess of test compound to protein.
# HCV (R155K) mutant = assay: Mass spectrometric analysis of covalent modification, R155K mutant; type: binding; settings: 3 hours reaction time
# Protocol: as §1
# HCV (D168V) mutant = target: T2, HCV (D168V) mutant (Hepatitis C virus genotype 1b, UniProt P26663, D1194V); assay: Mass spectrometric analysis of covalent modification, D168V mutant; type: binding; settings: 3 hours reaction time
# T2 construct: genotype 1b mutations in the NS3 protease of A156T, A156S, D168V, D168A, and R155K
# Protocol: as §1
# HCV (A156T) mutant = target: T3, HCV (A156T) mutant (Hepatitis C virus genotype 1b, UniProt P26663, A1182T); assay: Mass spectrometric analysis of covalent modification, A156T mutant; type: binding; settings: 3 hours reaction time
# T3 construct: genotype 1b mutations in the NS3 protease of A156T, A156S, D168V, D168A, and R155K
# Protocol: as §1
# [1] = system: HCV RNA replicon in cell line ET (luc-ubi-neo/ET), human Huh7 hepatoma; assay: HCV RNA replicon assay (Example 5, Method A); type: cell-based; settings: Hepatitis C virus, Huh-7, 72 h
# Protocol: The compounds were assayed to evaluate the antiviral activity and cytotoxicity of compounds in vitro using HCV RNA replicons. This assay used the cell line ET (luc-ubi-neo/ET), which is a human Huh7 hepatoma cell line that contains an HCV RNA replicon with a stable luciferase (Luc) reporter and cell culture-adaptive mutations. The HCV RNA levels were directly measured by viral specific TaqMan RT-PCR:
# The ET cell line was grown in Dulbecco's modified essential media (DMEM), 10% fetal bovine serum (FBS), 1% penicillin-streptomycin (pen-strep), 1% glutamine, 250 μg/mL G418 in a 5% CO2 incubator at 37° C. All cell culture reagents were obtained from Mediatech (Manassas, Va.). Cells were trypsinized (1% trypsin:EDTA) and plated out at 5×10^3 cells/well in white 96-well assay plates (Costar) dedicated to cell number (cytotoxicity) or antiviral activity assessments. Drugs were added at six 3-fold concentrations each and the assay was run in DMEM, 5% FBS, 1% pen-strep, 1% glutamine. Human interferon alpha-2b (PBL Biolabs, New Brunswick, N.J.) was included in each run as a positive control compound. […] Antiviral activity was measured by analyzing replicon-derived luciferase activity using the Steady-Glo Luciferase Assay System (Promega, Madison, Wis.) according to manufacturer's instruction. The number of cells in each well was determined by CytoTox-1 reagent (Promega). […]
# [2] = target: T4, NS3 protease self-cleavage in Huh-7-Luc-Neo-ET cells (Hepatitis C virus genotype 1b, UniProt Q9WMX2, E1202G/T1280I); type: cell-based, HCV; settings: replicon cells treated for 16 hours, continuous exposure (FIG. 3)
# T4 construct: host or cells: Huh-7-Luc-Neo-ET replicon cells (human hepatoma Huh7)
# Protocol: Inhibition of Protease Self Cleavage
# The remaining wells were rinsed 2× with PBS then fed with Replicon Media and returned to the incubator.
# Cell lysates were separated by SDS-Page (4-20%) and transferred to Immobilon-P PVDF membrane (Millipore Corporation, MA) and blotted with polyclonal anti NS3 antibody (Bioenza, Calif.). Blots were scanned on an Odyssey infrared scanner from Licor and the FL band and cleavage products were quantified separately using the Licor software provided with the scanner. The cleavage product was calculated as a percentage of the total NS3 in each sample and then normalized to the DMSO control so that the DMSO control reflects 100% activity.
compound,measurement,setting,value
C=CC(=O)N(C)C[C@H](NC(=O)OC(C)(C)C)C(=O)N1C[C@H](OC(=O)N2Cc3cccc(F)c3C2)C[C@H]1C(=O)N[C@]1(C(=O)NS(=O)(=O)C2CC2)C[C@H]1C=C [Compound 4],conversion via covalent modification (mass spectrometry),HCV (A156S) mutant,complete conversion
same,conversion via covalent modification (mass spectrometry),HCV (R155K) mutant,good conversion
same,conversion via covalent modification (mass spectrometry),HCV (D168V) mutant,complete conversion
same,conversion via covalent modification (mass spectrometry),HCV (A156T) mutant,complete conversion
C=C[C@@H]1C[C@]1(NC(=O)[C@@H]1C[C@@H](Oc2cc(-c3ccccc3)nc3cc(OC)ccc23)CN1C(=O)C(NC(=O)OC(C)(C)C)[C@@H](C)OC(=O)/C=C/C)C(=O)NS(=O)(=O)C1CC1 (stereo partly shown) [Compound 3],IC50,"[1]; read-out: Inhibition, Replicon (IC50)",< 0.01 µM
same,IC90,"[1]; read-out: Inhibition, Replicon, IC90 value",< 0.01 µM
CC(C)(C)OC(=O)NC1CN(C(=O)CCl)CCC/C=C\[C@@H]2C[C@@]2(C(=O)NS(=O)(=O)C2CC2)NC(=O)[C@@H]2C[C@@H](OC(=O)N3Cc4cccc(F)c4C3)CN2C1=O (stereo partly shown) [Compound 8],NS3 internal self-cleavage products after treatment,[2],inhibited
